Reference: patent publication US20250127162A1, “METHODS AND COMPOSITIONS FOR CONTROLLING PESTS IN RICE” (Globachem NV, priority 2022, published 2025)

Experiments:
Type in all cases: in vivo
Chilo suppressalis = experiment: Rice field trials, control of Chilo suppressalis (Example 1, Trials 1-2, Spain); details: Trial 2, 41 DAB, water volume 300 L/ha, applications AB, rate in treatment name
Experimental: (§1) All applications were made with an EC formulation containing 650 g/L of pelargonic acid (e.g., 685 g/L of 95% purity pelargonic acid), an anionic emulsifier and a branched fatty acid ester solvent.
Trials 1˜4 assessing the use of pelargonic acid for controlling Chilo suppressalis in rice were conducted in Spain and Thailand.
(§2) Application A was made to the crops at the beginning of infestations; for these trials, Stage BBCH 59; Application B was made 14 days after Application A.
(§3) Trial 1 was conducted in Spain using a water volume of 300 L/ha of water per application unless otherwise indicated. Pest Incidence/Number of Insects (PESINC) and Pest Severity (PESSEV) as a Percent of Untreated Check (% UNCK) as well as Phytotoxicity were assessed at various treatment evaluation intervals.
as §3, with “2” for “1”

Rice [1] = experiment: Phytotoxicity on rice (Example 1, Trials 1-2, Spain); set-up: key: % leaf necrosis/discoloration vs untreated plants; details: applications AB
Description: (§4) “Low Phytotoxicity” of pelargonic acid, as used herein means that the toxic effect on plants is absent or at such a level so as not to adversely impact the growth and/or yield of the plant under a given set of test conditions, e.g., at a given concentration of pelargonic acid. Phytotoxic effects may be measured in a number of different ways, for example, according to the principals set out in OEPP/EPPO Bulletin (2014) 44 (3), 265-273 “PP 1/135 (4) Phytotoxicity assessment”. The phytotoxic effect on plants may be assessed visually as a function of the percentage of discoloration to the leaves and/or the appearance of necrosis. When the pelargonic acid compositions are applied to the foliage of the rice plants in accordance with the teachings herein, will typically result in a level of phytotoxicity of less than 20%, preferably less than 15%, more preferably less than 10% necrosis of the leaves in comparison to untreated plants. Preferred uses of the invention will typically result in phytotoxicity of 7% or less, whilst the most preferred uses will typically result in phytotoxicity of 5% or less. The above values are approximate as any purely visual assessment is likely to contain a degree of subjectivity.
as §1, §2, §3
as §3, with “2” for “1”

Rice [2] = experiment: Phytotoxicity PHYGEN on rice (Example 1, Trials 3-4, Thailand); set-up: key: % leaf necrosis compared with untreated plants
Description: as §4, §1, §2
Trial 3 was conducted in Thailand using a water volume of 500 L/ha of water per application unless otherwise indicated. Insect Damage (DAMINS %), Insect Damage (Number) and Phytotoxicity were assessed at various treatment evaluation intervals.
Trial 4 was conducted in Thailand using a water volume of 500 L/ha of water per application unless otherwise indicated. Insect Damage (DAMINS %), Insect Damage (Number) and Phytotoxicity were assessed at various treatment evaluation intervals.

SMILES: CCCCCCCCC(=O)O [PA 650 g/ha, pelargonic acid]
- PESINC (Pest Incidence/Number of Insects) % UNCK (Chilo suppressalis; listed as PA 585 g/ha): 52.86 % UNCK
- PESINC (Pest Incidence/Number of Insects) % UNCK (Chilo suppressalis; listed as PA 975 g/ha): 52.86 % UNCK
- PESINC (Pest Incidence/Number of Insects) % UNCK (Chilo suppressalis; listed as PA 1300 g/ha): 57.86 % UNCK
- PESINC (Pest Incidence/Number of Insects) % UNCK (Chilo suppressalis; listed as PA 2600 g/ha): 67.86 % UNCK
- Phytotoxicity (Rice [1]; Trial 1 (PESINC table), water volume 150 L/ha): 0
- Phytotoxicity (Rice [1]; Trial 1 (PESINC table), water volume 300 L/ha): 0
- Phytotoxicity (Rice [1]; Trial 1 (PESSEV table), water volume 150 L/ha): 0
- Phytotoxicity (Rice [1]; Trial 1 (PESSEV table), water volume 300 L/ha): 0
- Phytotoxicity (Rice [1]; Trial 2 (PESINC table), water volume 150 L/ha): 0
- Phytotoxicity (Rice [1]; Trial 2 (PESINC table), water volume 300 L/ha): 0
- Phytotoxicity (Rice [1]; Trial 2 (PESSEV table), water volume 150 L/ha): 0
- Phytotoxicity (Rice [1]; Trial 2 (PESSEV table), water volume 300 L/ha): 0
- Phytotoxicity (PHYGEN) (Rice [2]; Trial 3, 0 DAA, water volume 200 L/ha): 0
- Phytotoxicity (PHYGEN) (Rice [2]; Trial 3, 0 DAA, water volume 500 L/ha): 0
- Phytotoxicity (PHYGEN) (Rice [2]; Trial 3, 0 DAB, water volume 200 L/ha): 0
- Phytotoxicity (PHYGEN) (Rice [2]; Trial 3, 0 DAB, water volume 500 L/ha): 0
- Phytotoxicity (PHYGEN) (Rice [2]; Trial 3, 7 DAA, water volume 200 L/ha): 0
- Phytotoxicity (PHYGEN) (Rice [2]; Trial 3, 7 DAA, water volume 500 L/ha): 0
- Phytotoxicity (PHYGEN) (Rice [2]; Trial 3, 7 DAB, water volume 200 L/ha): 0
- Phytotoxicity (PHYGEN) (Rice [2]; Trial 3, 7 DAB, water volume 500 L/ha): 0
- Phytotoxicity (PHYGEN) (Rice [2]; Trial 3, 10 DAA, water volume 200 L/ha): 0
- Phytotoxicity (PHYGEN) (Rice [2]; Trial 3, 10 DAA, water volume 500 L/ha): 0
- Phytotoxicity (PHYGEN) (Rice [2]; Trial 3, 10 DAB, water volume 200 L/ha): 0
- Phytotoxicity (PHYGEN) (Rice [2]; Trial 3, 10 DAB, water volume 500 L/ha): 0
- Phytotoxicity (PHYGEN) (Rice [2]; Trial 3, 14 DAB, water volume 200 L/ha): 0
- Phytotoxicity (PHYGEN) (Rice [2]; Trial 3, 14 DAB, water volume 500 L/ha): 0
- Phytotoxicity (PHYGEN) (Rice [2]; Trial 3, 21 DAB, water volume 200 L/ha): 0
- Phytotoxicity (PHYGEN) (Rice [2]; Trial 3, 21 DAB, water volume 500 L/ha): 0
- Phytotoxicity (PHYGEN) (Rice [2]; Trial 4, 0 DAA, water volume 200 L/ha): 0
- Phytotoxicity (PHYGEN) (Rice [2]; Trial 4, 0 DAA, water volume 500 L/ha): 0
- Phytotoxicity (PHYGEN) (Rice [2]; Trial 4, 0 DAB, water volume 200 L/ha): 0
- Phytotoxicity (PHYGEN) (Rice [2]; Trial 4, 0 DAB, water volume 500 L/ha): 0
- Phytotoxicity (PHYGEN) (Rice [2]; Trial 4, 7 DAA, water volume 200 L/ha): 0
- Phytotoxicity (PHYGEN) (Rice [2]; Trial 4, 7 DAA, water volume 500 L/ha): 0
- Phytotoxicity (PHYGEN) (Rice [2]; Trial 4, 7 DAB, water volume 200 L/ha): 0
- Phytotoxicity (PHYGEN) (Rice [2]; Trial 4, 7 DAB, water volume 500 L/ha): 0
- Phytotoxicity (PHYGEN) (Rice [2]; Trial 4, 10 DAA, water volume 200 L/ha): 0
- Phytotoxicity (PHYGEN) (Rice [2]; Trial 4, 10 DAA, water volume 500 L/ha): 0
- Phytotoxicity (PHYGEN) (Rice [2]; Trial 4, 10 DAB, water volume 200 L/ha): 0
- Phytotoxicity (PHYGEN) (Rice [2]; Trial 4, 10 DAB, water volume 500 L/ha): 0
- Phytotoxicity (PHYGEN) (Rice [2]; Trial 4, 14 DAB, water volume 200 L/ha): 0
- Phytotoxicity (PHYGEN) (Rice [2]; Trial 4, 14 DAB, water volume 500 L/ha): 0
- Phytotoxicity (PHYGEN) (Rice [2]; Trial 4, 21 DAB, water volume 200 L/ha): 0
- Phytotoxicity (PHYGEN) (Rice [2]; Trial 4, 21 DAB, water volume 500 L/ha): 0
